Measured values as given in patent publication US8471063B2, “Michael systems as transglutaminase inhibitors” (Zedira GmbH, priority 2006, dated 2013).
Where a SMILES comes first, the peptide text is derived from it. [ ]: non-standard residue; d: D form. The star is where a group is joined. Nle(5E-ene,6-CO2Et) = CCOC(=O)/C=C/CC[C@H](N)C(=O)O; Cbz = O=C(OCc1ccccc1)*

What was measured:
[1] = target: T1, recombinant human tissue transglutaminase (His6-rh-TG2) (Homo sapiens, UniProt P21980); assay: Inactivation of human tissue transglutaminase, fluorescence assay, IC50; format: biochemical; details: Table 1; 5 min preincubation, 37° C.
T1 sequence (P21980 1-687): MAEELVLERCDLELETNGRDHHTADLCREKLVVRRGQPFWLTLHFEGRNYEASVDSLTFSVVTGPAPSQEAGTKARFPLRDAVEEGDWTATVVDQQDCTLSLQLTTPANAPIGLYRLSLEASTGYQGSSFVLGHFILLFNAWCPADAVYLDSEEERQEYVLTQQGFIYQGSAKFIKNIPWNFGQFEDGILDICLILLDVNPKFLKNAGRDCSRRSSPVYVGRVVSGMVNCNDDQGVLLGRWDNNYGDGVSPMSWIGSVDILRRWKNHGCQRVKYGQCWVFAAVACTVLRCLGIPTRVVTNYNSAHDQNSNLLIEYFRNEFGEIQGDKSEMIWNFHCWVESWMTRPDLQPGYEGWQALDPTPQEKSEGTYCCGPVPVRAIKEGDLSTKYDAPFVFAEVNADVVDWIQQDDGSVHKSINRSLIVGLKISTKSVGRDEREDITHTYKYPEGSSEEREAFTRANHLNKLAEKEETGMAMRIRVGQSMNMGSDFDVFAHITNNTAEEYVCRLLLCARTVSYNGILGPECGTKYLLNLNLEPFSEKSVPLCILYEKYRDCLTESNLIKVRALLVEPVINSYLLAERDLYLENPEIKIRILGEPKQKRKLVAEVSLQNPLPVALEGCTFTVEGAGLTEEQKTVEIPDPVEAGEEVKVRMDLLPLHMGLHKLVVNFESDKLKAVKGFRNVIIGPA
How it was run: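 10 μg His6-rh-TG2 added to a pH 7.5 Tris/CaCl2/DTT/PEG8000 assay solution holding inhibitor, 5.56 mM glycine methyl ester and 50 μM Abz-APE(CAD-DNP)QEA-OH (pre-addition levels); 5 min at 37 °C before reading. Fluorescence λexc 313/λem 418 nm over 15 min; activity from slope, IC50 relative to DMSO control.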

FXIII = target: T2, FXIII (Homo sapiens, UniProt P00488); assay: Transglutaminase inhibition, IC50 at FXIII; format: biochemical; details: Table 1
T2 sequence (P00488 1-732): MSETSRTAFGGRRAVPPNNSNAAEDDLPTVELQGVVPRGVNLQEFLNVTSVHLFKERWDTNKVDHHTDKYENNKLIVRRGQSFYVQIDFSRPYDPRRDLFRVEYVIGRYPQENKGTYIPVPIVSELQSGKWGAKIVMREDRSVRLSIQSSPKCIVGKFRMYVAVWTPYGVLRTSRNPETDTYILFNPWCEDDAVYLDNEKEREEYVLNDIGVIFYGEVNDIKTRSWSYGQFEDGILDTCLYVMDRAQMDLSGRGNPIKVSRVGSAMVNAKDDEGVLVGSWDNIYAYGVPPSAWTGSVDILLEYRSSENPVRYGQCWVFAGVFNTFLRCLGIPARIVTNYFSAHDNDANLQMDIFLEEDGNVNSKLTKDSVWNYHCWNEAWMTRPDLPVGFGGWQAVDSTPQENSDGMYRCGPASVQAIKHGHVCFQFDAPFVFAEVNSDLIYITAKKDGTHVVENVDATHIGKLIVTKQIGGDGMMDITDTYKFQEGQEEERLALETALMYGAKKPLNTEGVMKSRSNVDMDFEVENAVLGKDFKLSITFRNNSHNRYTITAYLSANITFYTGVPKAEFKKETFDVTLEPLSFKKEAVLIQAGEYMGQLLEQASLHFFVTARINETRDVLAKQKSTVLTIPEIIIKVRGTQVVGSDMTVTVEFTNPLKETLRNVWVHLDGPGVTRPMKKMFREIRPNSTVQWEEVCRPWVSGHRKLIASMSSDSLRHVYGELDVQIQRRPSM

[2] = test system: biopsies from the lower duodenum of patients suffering from coeliac disease; assay: Biopsy example 1: anti-TG2 ELISA of PT gliadin stimulated duodenal biopsies; format: cell-based, human; details: 5 μM inhibitor, 30 min preincubation, then PT gliadin 1 mg/ml, 48 hrs; medium control 1.285, PT gliadin alone 2.144
Protocol: (§1) Biopsies with a diameter of about 2 mm were stored for a maximum of 30 min in ice-cold PBS after removal from the lower duodenum of patients suffering from coeliac disease. The single biopsies were transferred into the cavities of a 24-well cell culture dish and coated with 500 μl of Trowell T8 medium.
(§2) For preincubation, the transglutaminase inhibitor (1) in a final concentration of 5 μM was added to the biopsies and they were incubated for 30 min at a temperature of 37° C. in the incubator under gassing with CO2 (5%). Subsequently, stimulation with gliadin after peptic-tryptic digest (PT gliadin) used in a final concentration of 1 mg/ml was performed. PT gliadin was produced as described by Wieser and Belitz (Wieser H and Belitz HD (1992), Z Lebenm Unters Forsch 194: 229-234). The treatment with the proteases pepsin and trypsin simulates the digestion in the gastrointestinal tract. Thus the resulting gliadin peptides correspond to those which occur in the duodenum after the intake of cereal protein. The biopsies were then incubated for another 48 hrs in the incubator under the above conditions.
Controls were incubated with inhibitor-free medium and without or respectively with PT gliadin.
After 48 hrs, 50 μl samples were taken and analyzed by means of an anti-TG2 ELISA kit.

[3] = test system: biopsies from the lower duodenum of patients suffering from coeliac disease; assay: Biopsy example 2: interferon-γ ELISA of PT gliadin stimulated duodenal biopsies; format: cell-based, human; details: 5 μM inhibitor preincubation, PT gliadin stimulation
Protocol: as §1
as §2, with “Thus the resulting gliadin peptides correspond to those which occur in the duodenum after the intake of cereal protein. The biopsies were then incubated for another 48 hrs in the incubator under the above conditions.” left out
Biopsies were cultivated and treated as described in biopsy example 1. After 24 and 48 hrs, 50 μl samples were taken both from the biopsy stimulated with PT gliadin and from the biopsy preincubated with inhibitor (1), which subsequently was also stimulated with PT gliadin and the samples were analyzed by means of an interferon-γ Elisa. A very high interferon-γ value of 653 pg/ml could already be measured in the biopsy stimulated with PT gliadin after 24 hrs, which value increased to 1177 pg/ml after 48 hrs.

dog (Irish setter) = assay: In-vivo experiment in the Irish setter fed a wheat-containing diet
Protocol: A 5 weeks old dog (Irish setter) was fed with a wheat-containing diet. […] By a jejunal biopsy a partial degradation of the intestinal villi and an increased number of intraepithelial lymphocytes were found.
This dog was fed before each meal with 75 mg/kg body weight transglutaminase inhibitor (1) in a acid-stable formulation. In the following a decrease of the diarrhea and an increase in body weight were observed.

[4] = 75 mg/kg before each meal, after two months
[5] = 75 mg/kg body weight before each meal, acid-stable formulation

**Q.** `CCOC(=O)/C=C/CC[C@H](NC(=O)OCc1ccccc1)C(=O)N[C@H](C(=O)N1CCC[C@H]1C(=O)N[C@@H](CC(C)C)C(=O)OC)C(C)C` [Compound 1, N^α-benzyloxycarbonyl-{[(E)-(L)-6-amino-hept-2-ene-dicarboxylic acid]-1-ethanoyl}-L-valinyl-L-prolinyl-L-leucine methyl ester] (Cbz-[Nle(5E-ene,6-CO2Et)]VPL-OMe) was tested. Which IC50 [1] did it give?
**A.** Its IC50 is 30 nM.

**Q.** And the IC50 (FXIII)?
**A.** Its IC50 is greater than 50 µM.

**Q.** And the “OD450 in the anti-TG2 ELISA (antibody concentration)” value [2]?
**A.** The value was 1.401.

**Q.** And the interferon-γ value ([3]; after 24 hrs, PT gliadin alone 653 pg/ml)?
**A.** The interferon-γ value was 86 pg/mL.

**Q.** And the interferon-γ value ([3]; after 48 hrs, PT gliadin alone 1177 pg/ml)?
**A.** The interferon-γ value was 426 pg/mL.

**Q.** What about the “length of the intestinal villi (biopsy)” value (dog (Irish setter); [4]) of the same compound?
**A.** Its value is “normal length”.

**Q.** And the “number of intraepithelial lymphocytes (biopsy)” value (dog (Irish setter); [4])?
**A.** The value was “significantly reduced”.

**Q.** And the body weight (dog (Irish setter); [5])?
**A.** Its body weight is “increase”.

**Q.** And the diarrhea (dog (Irish setter); [5])?
**A.** Its diarrhea is “decrease”.
